Results as given in patent US20060167050A1 (POOGER PROPERTIES LIMITED, priority 2002, published 2006).

Tests used:
ADHD = conditions: in vivo; cited from earlier work
[1] = tested on: patients with major depressive disorder; conditions: cited from earlier work
[2] = tested on: children with delayed sleep phase syndrome; conditions: 2.5 to 7.5 mg PO once daily before expected bedtime; cited from earlier work
[3] = tested on: ADHD patients with insomnia disorders; assay: sleep induction by melatonin in ADHD patients with insomnia disorders first treated with methyl phenidate; assay type: in vivo, human; conditions: pure melatonin 2.5 mg
[4] = tested on: patients who had been previously treated with methyl phenidate; conditions: melatonin 3 mg; cited from earlier work
ADHD patients = conditions: versus 54% of ADHD cases with concomitant insomnia; cited from earlier work
dopamine levels = conditions: normal therapeutic doses; healthy, adult men; cited from earlier work

For Clc1cccc(Cl)c1N=C1NCCN1 [clonidine], the “efficacy in treating ADHD” value (ADHD) is listed as “effective in treating ADHD”.

For COc1ccc2[nH]cc(CCNC(C)=O)c2c1 [melatonin, N-acetyl-5-methoxytryptamine], the sleep quality scores ([1]; concomitant slow-release melatonin at 9 pm versus fluoxetine alone, 4 weeks) is listed as “significantly improved sleep quality scores”, the “need for additional sleep medications” value ([1]; concomitant slow-release melatonin with fluoxetine) is listed as “avoided the need for additional sleep medications” and the “average onset of sleep after melatonin administration” value [2] is listed as ≤ 1 h. For the same compound, the “activity as a sleep-inducing agent” value [3] was “active as a sleep-inducing agent” and the time for insomnia [4] was “significant reduction in the time for insomnia”.

For COC(=O)C(c1ccccc1)C1CCCCN1 (centres unmarked) [methylphenidate], the “problems relating to insomnia in treated ADHD patients” value (ADHD patients) is listed as 64% and the “dopamine levels (PET)” value (dopamine levels) is listed as “increased their dopamine levels”.
